Data taken from patent publication US20200377863A1, “MODEL SYSTEM OF LIVER FIBROSIS AND METHOD OF MAKING AND USING THE SAME” (Wake Forest University Health Sciences, priority 2017, published 2020).

Experiments:
[1] = system: implanted liver organoids; test: Effect of CCl4 treatment on liver organoids implanted on mouse liver; format: in vivo, nude mice; details: 4 μl/g CCl4 in olive oil (1:1), bi-weekly subcutaneous injections
Protocol: FIG. 3. The effect of CCl4 treatment on implanted liver organoids. Liver organoids were inserted on top of mouse livers via a small hole carved with a 8 mm biopsy punch and immobilized with fibrin glue. Some of the mice were treated with 4 μl/g CCl4, via bi-weekly subcutaneous injections. Liver organoids were harvested after 1 and 3 weeks and immune-stained for human hepatocytes (Hep-1) and proliferating cells (PCNA). Implant margins are drawn.
Yet, the in vitro culture conditions lack multiple factors present in vivo including components of the blood and immune cells, to mention a few. Accordingly, we implanted organoids on top the liver of nude mice by creating a small hole with a biopsy punch and immobilized them with fibrin glue. […] In parallel, we treated some on the implanted mice with […] of CCl4 in olive oil (1:1), via bi-weekly subcutaneous injections. […] Neovascularization was also observed within the organoids, probably due to CCl4-induced injury of the host liver.

EZH2 [2] = details: lymphoma and non-small cell lung cancer cell lines in vitro; cited from earlier work
EZH2 [3] = molecular target: T1, EZH2 (Homo sapiens, UniProt Q15910); test: Western blot and densitometry of EZH2 activity marker H3K27me3 in fibroblasts treated with GSK-126; format: cell-based
T1 construct: endogenous in cells; host or cells: myofibroblasts transitioned from mesenchymal stem cells (called tumor-associated fibroblasts, TAF)
T1 sequence (Q15910 whole entry, species assumed): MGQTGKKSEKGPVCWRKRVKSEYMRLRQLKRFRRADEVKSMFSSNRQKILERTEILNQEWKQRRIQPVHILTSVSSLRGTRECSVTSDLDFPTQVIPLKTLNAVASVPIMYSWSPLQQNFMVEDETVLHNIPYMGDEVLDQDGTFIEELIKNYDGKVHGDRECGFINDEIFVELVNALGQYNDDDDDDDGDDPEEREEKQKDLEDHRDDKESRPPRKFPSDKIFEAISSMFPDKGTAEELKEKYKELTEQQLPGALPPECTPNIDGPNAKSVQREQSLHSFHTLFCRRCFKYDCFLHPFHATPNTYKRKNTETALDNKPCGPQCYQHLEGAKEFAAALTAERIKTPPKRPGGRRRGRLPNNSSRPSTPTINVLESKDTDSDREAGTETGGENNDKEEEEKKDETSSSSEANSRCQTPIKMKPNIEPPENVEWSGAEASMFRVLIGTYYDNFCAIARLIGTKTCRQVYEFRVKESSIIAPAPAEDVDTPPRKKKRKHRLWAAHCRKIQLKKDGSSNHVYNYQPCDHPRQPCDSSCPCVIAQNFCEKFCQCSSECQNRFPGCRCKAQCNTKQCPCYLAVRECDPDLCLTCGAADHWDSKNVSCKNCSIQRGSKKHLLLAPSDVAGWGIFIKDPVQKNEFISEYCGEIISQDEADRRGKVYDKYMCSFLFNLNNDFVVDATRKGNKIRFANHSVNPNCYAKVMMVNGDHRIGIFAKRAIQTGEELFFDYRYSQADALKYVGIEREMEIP
T1 sequence (Q15022 whole entry partner, species assumed): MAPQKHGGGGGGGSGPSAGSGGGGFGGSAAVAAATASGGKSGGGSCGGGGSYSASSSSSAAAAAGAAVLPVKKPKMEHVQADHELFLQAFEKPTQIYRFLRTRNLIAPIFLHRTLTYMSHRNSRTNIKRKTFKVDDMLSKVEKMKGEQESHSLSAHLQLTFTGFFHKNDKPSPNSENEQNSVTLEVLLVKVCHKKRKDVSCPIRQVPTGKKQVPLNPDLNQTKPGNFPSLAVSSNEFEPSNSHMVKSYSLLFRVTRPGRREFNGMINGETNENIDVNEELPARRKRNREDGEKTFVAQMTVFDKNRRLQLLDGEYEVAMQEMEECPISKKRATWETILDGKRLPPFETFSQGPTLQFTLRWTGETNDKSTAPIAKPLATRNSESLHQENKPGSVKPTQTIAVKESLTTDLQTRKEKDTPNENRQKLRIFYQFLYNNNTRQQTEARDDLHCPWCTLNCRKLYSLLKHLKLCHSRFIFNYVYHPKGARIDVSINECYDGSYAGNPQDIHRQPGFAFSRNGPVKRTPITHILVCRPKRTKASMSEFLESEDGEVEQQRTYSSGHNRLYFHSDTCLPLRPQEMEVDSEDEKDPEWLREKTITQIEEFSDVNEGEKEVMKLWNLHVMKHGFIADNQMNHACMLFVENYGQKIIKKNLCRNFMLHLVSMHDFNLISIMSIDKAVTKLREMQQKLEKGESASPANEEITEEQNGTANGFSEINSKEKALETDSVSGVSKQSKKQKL
T1 sequence (O75530 whole entry partner, species assumed): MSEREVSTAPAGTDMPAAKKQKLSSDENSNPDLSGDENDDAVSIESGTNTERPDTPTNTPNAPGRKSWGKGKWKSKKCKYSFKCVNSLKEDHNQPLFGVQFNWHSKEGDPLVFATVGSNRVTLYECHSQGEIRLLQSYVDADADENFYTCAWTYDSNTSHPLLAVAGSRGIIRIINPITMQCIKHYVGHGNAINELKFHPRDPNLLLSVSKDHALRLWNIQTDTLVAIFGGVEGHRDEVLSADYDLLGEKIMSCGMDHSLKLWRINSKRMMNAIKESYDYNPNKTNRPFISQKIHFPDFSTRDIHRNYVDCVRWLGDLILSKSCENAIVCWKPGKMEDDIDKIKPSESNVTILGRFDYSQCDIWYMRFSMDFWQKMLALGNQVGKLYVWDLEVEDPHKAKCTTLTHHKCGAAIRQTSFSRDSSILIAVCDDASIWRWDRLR
Protocol: (§1) FIG. 4A-FIG. 4F. Analysis of LX-2 cells. FIG. 4A: Western blot comparison of αSMA and PRC2 components/markers in Myofibroblasts and LX-2. FIG. 4B: Densitometry analysis of Myofibroblast vs. LX-2 western blot. FIG. 4C: Western blot analysis of αSMA and PRC2 components/markers in LX-2 cells treated with TGFβ for 24 or 48 hours. FIG. 4D: Densitometry analysis of TGFβ treated LX-2. FIG. 4E: Western blot analysis of EZH2 marker (H3K27me3) for EZH2 activity in myofibroblasts transitioned from Mesenchymal Stem Cells treated with GSK-126, a chemical inhibitor of EZH2. DMSO is a vehicle control.

[4] = system: cells that do not carry activating EZH2 mutations; details: high doses; cited from earlier work
[5] = system: cancer cell lines that have EZH2 activating mutations; details: cited from earlier work
LX-2 = test: Western blot of EZH2 activity and PRC2 components in LX-2 cells incubated with TGFβ; format: cell-based; details: LX-2 cells treated with TGFβ for 24 or 48 hours; FIG. 4C, 4D
Protocol: as §1
In the fibrotic liver tissue, about 90% of myofibroblasts are derived from HSC (Liedtke, C., et al., Experimental liver fibrosis research: update on animal models, legal issues and translational aspects. Fibrogenesis Tissue Repair, 2013. 6(1): p. 19), and EZH2 may be an epigenetic regulator of HSC activation and transition into myofibroblast. It was shown that, like myofibroblasts (MF-10), the HSC cell line (LX-2) expresses EZH2 and the PRC components in vitro (FIG. 4A, FIG. 4B).

## ClC(Cl)(Cl)Cl [CCl4, carbon tetrachloride]
[1]; harvested after 1 week
  Organoid histology after 1 week of CCl4 treatment: lack of nucleated human hepatocytes within the organoids and early signs of fibrosis
[1]; harvested after 3 weeks
  Organoid histology after 3 weeks of CCl4 treatment: higher number of proliferating stromal and endothelial cells

## CC[C@H](C)n1cc(C)c2c(C(=O)NCc3c(C)cc(C)[nH]c3=O)cc(-c3ccc(N4CCNCC4)nc3)cc21 [GSK-126]
EZH2 [2]
  Prevention of H3K27me3: effective at preventing H3K27me3
EZH2 [3]; myofibroblasts transitioned from Mesenchymal Stem Cells, treated with GSK-126, FIG. 4F
  Densitometry of EZH2 marker (H3K27me3): activity of EZH2: effective decrease in activity of EZH2
EZH2 [3]; tumor-associated fibroblasts (TAF), Western blot, FIG. 4E, 4F
  H2K27me3 after incubation with GSK-126: complete loss of H2K27me3
[4]
  Lethality: non-lethal, even at high doses
[5]
  Cell death: resulted in cell death

## TGFβ
LX-2
  EZH2 activity and PRC machinery (Suz12, H3K27me3): induced EZH2 activity and PRC machinery
